Read-outs that look alike come from different tables or passages of the source.
Legend:
progesterone receptor [1] = target: T1, progesterone receptor (Homo sapiens, UniProt P06401); experiment: PR transactivation assay, antagonistic activity (PR luciferase reporter); type: cell-based; details: for Ratio of IC50's: PR agonism / PR antagonism
T1 sequence (P06401 165-933 limits assumed): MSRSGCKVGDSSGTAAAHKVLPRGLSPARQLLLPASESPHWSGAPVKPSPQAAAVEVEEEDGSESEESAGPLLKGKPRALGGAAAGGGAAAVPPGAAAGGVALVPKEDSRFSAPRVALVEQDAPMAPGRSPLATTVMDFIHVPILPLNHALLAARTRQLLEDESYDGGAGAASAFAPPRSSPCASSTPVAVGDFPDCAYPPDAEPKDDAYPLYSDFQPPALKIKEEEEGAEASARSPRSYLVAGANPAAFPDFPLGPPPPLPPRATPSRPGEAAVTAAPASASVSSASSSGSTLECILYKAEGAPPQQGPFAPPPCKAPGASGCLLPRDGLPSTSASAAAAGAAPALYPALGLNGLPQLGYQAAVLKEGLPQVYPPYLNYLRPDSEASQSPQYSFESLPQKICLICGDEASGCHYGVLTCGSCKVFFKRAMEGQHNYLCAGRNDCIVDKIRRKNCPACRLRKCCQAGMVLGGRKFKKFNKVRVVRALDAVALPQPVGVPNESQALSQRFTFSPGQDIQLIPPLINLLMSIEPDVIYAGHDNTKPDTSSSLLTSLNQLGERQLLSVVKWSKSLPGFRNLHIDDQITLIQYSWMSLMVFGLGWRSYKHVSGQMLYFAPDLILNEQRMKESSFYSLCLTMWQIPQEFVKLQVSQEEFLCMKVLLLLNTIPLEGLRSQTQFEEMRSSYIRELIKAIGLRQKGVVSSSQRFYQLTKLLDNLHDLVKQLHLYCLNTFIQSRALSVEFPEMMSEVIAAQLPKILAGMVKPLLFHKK
Method: (§1) Transactivation Assay for Progesterone Agonist and Antagonistic Activity (See Table 1).
(§2) Experimental: PR transactivation studies was carried out in human breast cancer (T47D) cells, grown in RPMI medium without phenol red and 5% charcoal stripped fetal bovine serum, transiently transfected with PR luciferase reporter (CCS-6043L signal reporter assay kit, Qiagen). The cells were stimulated R5020 as PR agonist and treated in the presence or absence of the tested compounds for 24 hours.

progesterone receptor [2] = target: T2, progesterone receptor (Homo sapiens, UniProt P06401); experiment: PR transactivation assay, agonistic activity (PR luciferase reporter); type: cell-based; details: T47D cells
T2 sequence (P06401 679-933 limits assumed): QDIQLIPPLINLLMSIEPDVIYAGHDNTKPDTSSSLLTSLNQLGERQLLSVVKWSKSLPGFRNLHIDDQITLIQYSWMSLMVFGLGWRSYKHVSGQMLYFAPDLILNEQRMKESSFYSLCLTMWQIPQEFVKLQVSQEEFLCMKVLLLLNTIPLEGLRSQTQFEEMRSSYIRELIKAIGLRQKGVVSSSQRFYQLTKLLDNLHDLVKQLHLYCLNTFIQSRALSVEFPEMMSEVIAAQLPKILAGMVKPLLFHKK
Method: as §1
as §2, with “hours. The effect was calculated using dual luciferase assay kit (Promega, WI)) based on RU486 as full antagonist and R5020 as agonist for progesterone receptor.” for “hours.”

[3] = tested on: estradiol-primed immature female rabbits; experiment: McPhail and anti-McPhail tests in rabbits; type: in vivo, rabbit; details: for antiprogestational activity (anti-McPhail test): immature female rabbit
From the text: The McPhail test in the immature female rabbit is a well-established model to test progestatational and antiprogestational activity [McPhail 1934).

guinea pig = experiment: Guinea pig model (ovulation inhibition, uterine weight, vagina, ovary, classification); type: in vivo; details: for Classification: guinea pig model; for ER-/PR balance vagina. / Ovary (CL): at max. dose (10.mg/day s.c.); for Ovary (CL): CL = corpora lutea
[4] = T47D cells, stimulant R5020, read-out: IC50 Average of 2 expts
[5] = Table 2 summary, read-out: PR antagonism (IC50)
[6] = stimulant R5020, read-out: EC50
[7] = estradiol-primed immature female rabbit

Row | Compound | IC50 (progesterone receptor [1]; [4]) | IC50 (progesterone receptor [1]; [5]) | EC50 (progesterone receptor [2]; [6]) | Ratio of IC50's (progesterone receptor [1]) | Antagonist rel to RU486 (%) (progesterone receptor [1]; T47D cells, stimulant R5020) | Agonist rel to R5020 (%) (progesterone receptor [2]) | progestational activity (McPhail test) ([3]; dose of 3 mg/animal/day) | Classification (guinea pig) | Uterine Weight at max. dose (10.mg/day s.c.) (guinea pig; guinea pig) | ER-/PR balance vagina. (guinea pig; guinea pig) | Ovary (CL) (guinea pig; guinea pig) | progestational activity (McPhail test) [3, 7] | antiprogestational activity (anti-McPhail test) [3] | Ovulation Inhibition (guinea pig; guinea pig) | progestational activity relative to CDB 2914 ([3]; assumed from McPhail test) | ER-/PR balance vagina.: dose at which the dominance is seen (guinea pig; guinea pig) | EC50 (progesterone receptor [2]; control compound R5020, read-out: Control EC50)
1 | COC[C@]1(OC)CC[C@H]2[C@@H]3CCC4=CC(=O)CCC4=C3[C@@H](c3ccc(/C=N/O)cc3)C[C@@]21C [ASOPRISNIL, reference compound] | 0.62 nM | 0.62 nM | 4.9 nM | – | – | – | – | – | – | – | – | – | – | – | – | – | –
2 | C[C@]12C[C@H](c3ccc(S(C)(=O)=O)cc3)C3=C4CCC(=O)C=C4CC[C@H]3[C@@H]1CC[C@@]2(O)C(F)(F)C(F)(F)F [BAY 1002670, reference compound] | 0.325 nM | 0.33 nM | 9.5 nM | 28.7 | 342.9% | 3.9% | – | – | – | – | – | – | – | – | – | – | –
3 | CC(=O)O[C@]1(C(C)=O)CC[C@H]2[C@@H]3CCC4=CC(=O)CCC4=C3[C@@H](c3ccc(N(C)C)cc3)C[C@@]21C [CDB-2914, reference compound] | 0.65 nM | 0.65 nM | 21.5 nM | 38.4 | 120% | 1.5% | didn't show any activity at all | blunted PR- | (1.01) | ER-domin. | degenerated | – | – | – | – | – | –
4 | COCC(=O)[C@@]1(OC(C)=O)CC[C@H]2[C@@H]3CCC4=CC(=O)CCC4=C3[C@@H](c3ccc(N(C)C)cc3)C[C@@]21C [CDB-4124, reference compound] | 0.7 nM | 0.7 nM | 25 nM | 30.7 | 300% | 1.4% | – | PR-antagonist | 1.41 | ER-domin. | deg. & | did not exhibit any progestational activity | higher antiprogestational activity than RU 486 | ≦10.0 mg | – | – | –
5 | C=C1CCOC12CCC1C3CCC4=CC(=O)CCC4=C3[C@@H](c3ccc(-n4ccnc4)cc3)C[C@@]12C (stereo partly drawn) [EC336] | 5 nM | 5 nM | 5 nM | 1.0 | 21.8% | 7% | – | – | – | – | – | – | – | – | – | – | –
6 | CC[C@@H]1CC2C3CCC4=CC(=O)CCC4=C3[C@@H](c3ccc(-c4ccoc4)cc3)C[C@]2(C)C1C(C)=O (stereo partly drawn) [EC343, 11β-{4′-[3′-furanyl)phenyl}-16α-ethyl-19-norpregna-4,9-diene-3,20-dione] | 2.1 nM | 2.1 nM | 4.75 nM | 2.2 | 57.1% | 6.4% | – | – | – | – | – | – | – | – | – | – | –
7 | C=C[C@@H]1CC2C3CCC4=CC(=O)CCC4=C3[C@@H](c3ccc(-c4cccnc4)cc3)C[C@]2(C)C1C(C)=O (stereo partly drawn) [EC344, 11β-{4′-[3′-pyridinyl)phenyl}-16α-ethenyl-19-norpregna-4,9-diene-3,20-dione] | 0.35 nM | – | – | – | 324% | 0.32% | – | – | – | – | – | – | – | – | – | – | –
8 | C=C[C@@H]1CC2C3CCC4=CC(=O)CCC4=C3[C@@H](c3ccc(-c4ccoc4)cc3)C[C@]2(C)C1C(C)=O (stereo partly drawn) [EC345, 11β-{4′-[3′-furanyl)phenyl}-16α-ethenyl-19-norpregna-4,9-diene-3,20-dione] | 1 nM | – | 49 nM | – | 120% | 0.65% | – | – | – | – | – | – | – | – | – | – | –
9 | CC[C@@H]1CC2C3CCC4=CC(=O)CCC4=C3[C@@H](c3ccc(-n4ccnc4)cc3)C[C@]2(C)C1C(C)=O (stereo partly drawn) [EC346, 11β-{4′-[1′ imidazolyl)phenyl}-16α-ethyl-19-norpregna-4,9-diene-3,20-dione] | 0.3 nM | – | – | – | 378% | 0.32% | – | mesoprogestin | 0.8 | PR-domin | degenerated | – | – | – | – | – | –
10 | C=C[C@@H]1CC2C3CCC4=CC(=O)CCC4=C3[C@@H](c3ccc(-n4ccnc4)cc3)C[C@]2(C)C1C(C)=O (stereo partly drawn) [EC347] | 0.95 nM | 0.95 nM | 3.4 nM | 3.5 | 120% | 9.7% | – | mesoprogestin | 1.01 | PR-domin | degenerated | – | – | – | – | – | –
11 | CC(=O)C1[C@H](C)CC2C3CCC4=CC(=O)CCC4=C3[C@@H](c3ccc(-c4cccnc4)cc3)C[C@@]21C (stereo partly drawn) [EC348, 11β-{4′-[3′-pyridinyl)phenyl}-16α-methyl-19-norpregna-4,9-diene-3,20-dione] | 0.39 nM | 0.39 nM | 4.61 nM | 11.8 | 292.7% | 7.0% | – | mesoprogestin | 1.01 | PR-domin | degenerated | – | – | – | – | – | –
12 | C[C@]12C[C@H](c3ccc(-c4cccnc4)cc3)C3=C4CCC(=O)C=C4CCC3C1CCC21OCCC1=C(F)F (stereo partly drawn) [EC-312] | 0.625 nM | 0.63 nM | 51.5 nM | 81.7 | 160% | 0.73% | – | mesoprogestin | 1.03 | PR-domin. | degenerated | active both as a progestin agonist and antagonist | active both as a progestin agonist and antagonist | – | more than ten-fold higher | ≧0.1 mg | –
13 | C[C@]12C[C@H](c3ccc(-n4ccnc4)cc3)C3=C4CCC(=O)C=C4CCC3C1CC[C@@]2(O)C(F)(F)C(F)(F)F (stereo partly drawn) [EC-317] | 0.46 nM | 0.46 nM | – | 217.3 | 255.3% | 0.35% | – | – | – | – | – | – | – | – | – | – | –
14 | CC[C@@H]1CC2C3CCC4=CC(=O)CCC4=C3[C@@H](c3ccc(-c4cccnc4)cc3)C[C@]2(C)C1C(C)=O (stereo partly drawn) [EC-342, 11β-{4′-[3′-pyridinyl)phenyl}-16α-ethyl-19-norpregna-4,9-diene-3,20-dione] | 0.95 nM | 0.95 nM | 5.15 nM | 5.7 | 120% | 7% | – | mesoprogestin | 0.86 | PR-domin | degenerated | – | – | – | – | – | –
15 | CCC(=O)[C@@]1(C)CC[C@H]2[C@@H]3CCC4=CC(=O)CCC4=C3CC[C@@]21C [R5020, reference compound] | – | – | – | – | – | – | – | – | – | – | – | – | – | – | – | – | 0.35 nM
16 | CC#C[C@]1(O)CC[C@H]2[C@@H]3CCC4=CC(=O)CCC4=C3[C@@H](c3ccc(N(C)C)cc3)C[C@@]21C [RU-486, reference compound] | – | – | – | – | – | – | – | – | (1.26) | – | – | – | – | – | – | ≧1.0 mg | –
